We go through one molecule from paper PMC9607246 (Pharmaceutics, 2022).

In brackets after ≈: the same amount, converted by molar mass. Read-outs that look alike come from different tables or passages of the source.

In series [1] the test system is creatine phosphokinase elevation. The note with it: in vivo; cited from earlier work. How it is done: The probability of Cmin ≥24.3 mg/L at 24 h was calculated for each scenario.
For series [2] the following is noted: excretion primarily by the kidneys; cited from earlier work.
Series [3] deals with Pathogenic micro-organism (S. aureus, S. epidermidis, S. hominis, E. fecalis, S. sacrophyticus, S. lugdunensis). The class given is cell-based. Particulars: e-test; median (IQR) of pathogens of the 46 patients (36/46 identified); mg/L. How it is done: Demographic (age, body weight and height), treatment (dose and co-administered medications) and clinical data (microbiological data, analytical and disease covariates) were collected at patient enrolment. Serum creatinine and serum albumin were measured on the day (if not available, the nearest day) of measurement of the drug concentration.

For a further series, the system named is Staphylococcus aureus. The note with it: total AUC, MIC equal to 1 mg/L, cited from earlier work.
In series [4] the test system is plasma proteins (albumin and α-glycoprotein). Particulars: cited from earlier work.
A short description of series [5]: Population pharmacokinetic model of daptomycin in patients with normal and impaired renal function (NONMEM).
Experimental: A prospective multi-center study in patients admitted to the General University Hospital of Castellón (Castellón, Spain) and the Arnau de Vilanova Hospital of Valencia (Valencia, Spain) was conducted. […] The exclusion criteria were patients with renal replacement therapy.
Five serial blood samples were collected from a peripheral vein from day 4 (steady state) at the pre-dose, 0.5, 1–2, 4–10 h after the infusion ended and before the next dose.
Precision and accuracy were assessed by performing replicate analysis of quality control samples against calibration standards. Intra- and inter-assay coefficients of the variation were always <10%.
All data analyses were performed based on the population approach with the software NONMEM® (Version 7.4; Icon Inc, PA, USA). The population PK parameters were estimated using the Stochastic Approximation of the Expectation Maximization and the Importance Sampling Estimation method. The Perl-Speaks-NONMEM program (version 4.8.1, Department of Pharmaceutical Biosciences, Uppsala University, Sweden) [33] and Pirana software (version 2.9.6, Pirana Software & Consulting BV) were used for model development and evaluation. Data processing and graphical analysis were conducted using R (version 4.0.0, http://cran.r-project.org, accessed on 14 April 2020) and R-Studio (version v2021.09.0+354).
(§1) This model assumes that Cbound is directly proportional to Cfree with no saturable mechanism. • Non-linear binding model with single site binding [38, 39]: (2) Ctotal=Cfree+Bmax·Cfree/(KD+Cfree) where Bmax (mg/L) represents the maximal binding capacity and KD (mg/L) is the equilibrium dissociation constant. • Non-linear binding model with multiple site binding [38, 40, 41] (3) Ctotal=Cfree+∑^ Bmax,i·Cfree/(KD,i+Cfree) where Bmax,i and KD,i represent the binding-dissociation parameters of the i th binding site of plasma proteins.
Inter-individual variability (IIV) associated with the PK model parameters was modeled exponentially, and the residual unexplained variability (RUV) was explored using the additive error model on the logarithmic scale. The significance of the non-diagonal elements of the Ω variance-covariance matrix was evaluated.
Once the base model was selected, a graphical exploration of the correlations between the PK parameters (when eta-shrinkage was less than 35%) [42] and covariates was performed. The continuous covariate included age, height, body weight, serum creatinine, creatinine clearance, and albumin. The categorical covariates were gender and statin co-administration. A numerical evaluation of the parameter-covariate relationship was performed manually in a univariate testing.
The model selection was based on the physiological and pharmacological rationale with the principle of parsimony [43]. A decrease in 3.84 points of the objective function value (OFV) provided by NONMEM® between two nested models differing in one parameter was considered significant at the 5% level, together with the visual inspection of the goodness of fit (GOF) [44] and normalized prediction distribution error (NPDE) plots [45].
A model evaluation [46, 47] was performed through prediction-corrected visual predictive checks (pc-VPC), [48] and a non-parametric bootstrap (n = 1000) was conducted to assess the statistical significance of the final parameter estimates.
[6] abbreviates: non-parametric bootstrap n = 1000, median.
The mark [7] stands for this setting: population estimate, final model, unbound daptomycin, 46 patients.

Text for human plasma proteins: as §1

For `CCCCCCCCCC(=O)N[C@@H](Cc1c[nH]c2ccccc12)C(=O)N[C@H](CC(N)=O)C(=O)N[C@@H](CC(=O)O)C(=O)N[C@@H]1C(=O)NCC(=O)N[C@@H](CCCN)C(=O)N[C@@H](CC(=O)O)C(=O)N[C@H](C)C(=O)N[C@@H](CC(=O)O)C(=O)NCC(=O)N[C@H](CO)C(=O)N[C@@H]([C@H](C)CC(=O)O)C(=O)N[C@@H](CC(=O)c2ccccc2N)C(=O)O[C@@H]1C` [daptomycin], in series [1], the “trough level (Cmin) associated with a 50% probability of creatine phosphokinase elevation” value was ≥ 24300 ng/mL. Besides, the eliminated in urine in series [2] is listed as 54–78%. In the series with human plasma proteins (in vivo), the “Bmax (maximal binding capacity)” value worked out at 160 mg/L and the “Bmax, bootstrap median” value is reported as 157 mg/L. Further, the “KD, bootstrap median” value on human plasma proteins (setting [6]) stood at 3.61 µg/mL (≈ 2.23 µM). Also, the “KD (equilibrium dissociation constant)” value on human plasma proteins (population estimate, single-site non-linear binding model, estimated from total concentrations, no free concentrations measured) is 3.56 µg/mL (≈ 2.2 µM). Moreover, in series [3], the MIC micro-organism was 0.5 (0.25, 0.5). In addition, in the series with Staphylococcus aureus (ref 19), the “AUC with bactericidal effect” value is 761 mg·h/L and the “AUC with bacteriostatic effect” value is 465 mg·h/L. Also, in the series with Staphylococcus aureus (ref 24, 51, 52), the “AUC with bactericidal effect” value is recorded as 666 mg·h/L. Further, in series [4], the free fraction result was “around 10%”; the “reversibly bound to albumin and α-glycoprotein” value was 90%. For the same molecule, in series [5] (setting [6]), the “CL, bootstrap median” value was determined as 7.01 L/h; the “Q, bootstrap median” value stood at 1.93 L/h; the “V1, bootstrap median” value was found to be 0.97 L. In series [5] (setting [7]), the “Q (intercompartmental clearance)” value is 1.96 L/h and the “V1 (apparent volume of distribution of the unbound central compartment)” value is recorded as 0.95 L.
